Assay results: paper PMC8115619, “Generation of a chemical genetic model for JAK3” (Scientific Reports, 2021)

Experiments:
[1] = test system: IL-4 induced STAT6 phosphorylation in wild type BMDMs; assay: Inhibitor washout, IL-4 induced STAT6 phosphorylation, wild type BMDMs; assay type: cell-based, mouse; conditions: inhibitor 2 h, 0.5 μM Ruxolitinib
Experimental: Covalent inhibitors would be predicted to have very slow off rates and therefore inhibition should remain even if the unbound inhibitors are washed out of the cells. To test this, cells were treated with a high concentration of inhibitor for 2 h before being washed 3 times in PBS and then incubated in media without inhibitor for 0.5 to 24 h. If the inhibitor acts via a non-covalent mechanism, inhibition would not be expected to remain following washout from the cells. Ruxolitinib is a non-covalent pan-JAK inhibitor that can inhibit multiple JAK-STAT pathways in macrophages. […] To confirm this was not the case, similar experiments were done in JAK3 Cys905Ser knockin cells. […] Similar experiments were also carried out with PF-06651600. […] As the level of inhibition was lower at 2 h post washout than 30 min the experiment was repeated to look at 4 and 24 h time points for the washout step.
Figure 4 Effect of inhibitor washout on JAK3 inhibition. BMDMs were isolated from wild type and JAK3 Cys905Ser knockin mice. […] The macrophages were then either stimulated with 10 ng/ml IL-4 for 30 min or washed 3 times in PBS and then incubated in media without inhibitor for the indicated times. The cells were then stimulated with IL-4 for 30 min and STAT6 phosphorylation determined by immunoblotting using levels of ERK1/2 as a loading control.
(§1) Bone marrow derived macrophages (BMDMs) were cultured as described. Briefly, bone marrow was flushed in PBS from the femurs and tibias of mice. Cells were cultured on bacterial grade plastic for 7 days at 37 °C, 5% CO2. Cells were then detached using Versene (Gibco), re-plated on tissue culture plastic in BMDM media (in DMEM supplemented with 10% heat inactivated FBS (Labtech), 2 mM L-glutamine, 100 U/ml penicillin G, 100 μg/ml streptomycin and 0.25 μg/ml amphotericin, 5 ng/ml M-CSF) and used within 48 h. Where indicated cells were stimulated with 10 ng/ml IL-4, 10 ng/ml GM-CSF, 10 ng/ml IL-10 or 10 ng/ml IFNβ. All cytokines were from PeproTech.
(§2) Cells were lysed directly into SDS sample buffer and aliquots run on 10% polyacrylamide gels using standard methods. Proteins were transferred onto nitrocellulose membranes, and specific proteins were detected by immunoblotting. Antibodies against tyrosine phosphorylated STATs were from Cell Signaling Technology (phospho-STAT1 #9167, phospho-STAT3 #9131, phospho-STAT5 #4322 and phospho-STAT6 #9361). The total ERK1/2 antibody used as a loading control was also from cell Signaling Technology (#4695). HRP-conjugated secondary antibodies were obtained from Pierce. Bands were detected using Clarity ECL reagents from BioRad and imaged on a Licor Odyssey Fc system. Quantification was carried out using Licor Image Studio software. After correction for the ERK1/2 levels to account for loading differences, percentage inhibition was calculated relative to the IL-4 stimulated condition. IC50 values were calculated using the same methods as for the in vitro IC50 values.

[2] = test system: IL-4 induced STAT6 phosphorylation in BMDMs from JAK3 Cys905Ser knockin mice; assay: IL-4 induced STAT6 phosphorylation in JAK3 Cys905Ser knockin BMDMs (immunoblot); assay type: cell-based, mouse; conditions: Mus musculus, BMDM, 0.5 h; 10 ng/ml IL-4 30 min, pSTAT6 Tyr641 immunoblot, two independent experiments
Experimental: (§3) Figure 3 Effect of JAK3 inhibitors on IL-4 induced STAT6 phosphorylation. BMDMs were isolated from wild type and JAK3 Cys905Ser knockin mice. Cells were incubated with the indicated concentrations of inhibitor before stimulation for 30 min with 10 ng/ml IL-4. Cells were lysed and the levels of STAT6 phosphorylated at Tyr641 were assessed by immunoblotting. Levels of ERK1/2 were determined as a loading control.
as §1, §2

[3] = test system: IL-4 induced STAT6 phosphorylation in wild type BMDMs; assay: IL-4 induced STAT6 phosphorylation in wild type BMDMs (immunoblot); assay type: cell-based; conditions: Mus musculus, BMDM, 0.5 h; 10 ng/ml IL-4 30 min, pSTAT6 Tyr641 immunoblot, two independent experiments
Experimental: as §3, §1, §2

Compound | block of IL-4 induced STAT6 phosphorylation without washout, wild type BMDMs ([1]; no washout, 10 μM TL6-144) | inhibition of IL-4 induced STAT6 phosphorylation after inhibitor washout, wild type BMDMs ([1]; washed 3 times in PBS, IL-4 30 min to 2 h after washout, 10 μM TL6-144, 100 μM PF-06651600) | IC50 [2] [nM] | IC50 [3] [nM]
N#CC[C@H](C1CCCC1)n1cc(-c2ncnc3[nH]ccc23)cn1 [Ruxolitinib] | completely block | completely lost | – | –
CN(C)C(=O)/C(C#N)=C/c1ccc(-c2nc3cnc4[nH]ccc4c3n2C2CCCCC2)o1 [FM-381, reference compound] | – | – | 890 | 180
